Entries after “also recorded” stand apart in the source; their conditions may differ.
What was measured:
Assay type in all cases: cell-based
Caspase-3/7 = assay: Caspase-Glo 3/7 assay in SNO-oesophageal cancer cells; parameters: increase in Caspase-3/7 expression: unit not given here; details: 10 μM, 24 hours treatment
Protocol: The Caspase-Glo®3/7 assay was used to confirm that the structural changes observed are due to apoptotic cell death. In this luminescent based assay, a 1:1 ratio of the Caspase-Glo® reagent was added to treated cells into a microtiter plate. The plate was gently agitated for 30 seconds and incubated for 30 minutes at room temperature. The whole luminescent intensity was measured using a Synergy HT Multi-Detection Microplate reader, where the intensity of the luminescence is proportional to the Caspase-3/7 concentration.
The error bars where constructed based on the standard error of the mean (SEM) where n=6. The significant difference were calculated with respect to the vehicle control (P<**0.001). A relative increase in expression was observed throughout.

A-549 lung cancer cells = assay: Morphological features of A-549 lung cancer cells by inverse light microscopy; details: A-549 cells
Protocol: Morphological studies were conducted using a Zeiss Axiovert 25 Inverted Light Microscope [Carl Zeiss, Germany] with photographs taken with an Axio Cam Camera and Axio Vision 3.1 software [Carl Zeiss, Germany] at 100× magnification.
Morphological features of A-549 lung cancer cells evaluated by inverse light microscopy following differential treatments are indicated in FIG. 28: (A)=Untreated Negative Control; (B)=1% DMSO Vehicle Control (VC); (C)=100 μM Cisplatin (CDDP) Positive Apoptotic Control; (D)=Hydrogen Peroxide Positive Necrotic Control; (E)=complex (6) having a molar ratio of 1:1; (F)=Triphenylphosphine Ligand; (G)=complex (9) having a molar ratio of 1:4. Cells were visualised with Zeiss Axiovert 25 Inverted Light Microscope with photographs taken at 100× magnification. Morphology of A-549 lung cancer cells after differential treatments resembled that of the positive apoptotic control with characteristic apoptotic cellular morphology such as blebbing, rounding and cell shrinkage being observed.

[1] = tested on: peripheral blood mononucleocytes (PBMCs); assay: Trypan blue viability assay of PBMCs (non-cancerous cells); details: PBMCs from a healthy donor
Source text: To evaluate the relative toxicity on non-tumorigenic tissues, the ideal is to compare the effect of the compounds to a similar cell line that is non-cancerous. The Applicant is currently in the process of purchasing these cell lines and will evaluate the toxicity of the compounds in the near future. However, the Applicant did evaluate the effect of the complexes of the instant invention on peripheral blood mononucleocytes (PBMCs) isolated from fresh whole blood samples from a healthy donor. This already gives a good indication of the potential toxicity of complexes (1)-(5) in an in vivo environment.
The percentage viability of differentially treated PBMCs (peripheral blood mononucleocytes) for complexes (1)-(5) was determined by the Trypan blue viability assay, as shown in FIG. 10. Cells were treated with complexes (1)-(5). Cells treated with 0.1% DMSO and 100 μM Cisplatin were used as a vehicle and apoptotic control respectively. The SEM is indicated as error bars (n=2).

| Compound | increase in Caspase-3/7 expression (Caspase-3/7) | signs of apoptosis (morphology) (A-549 lung cancer cells) | toxicity on PBMCs (decrease in viability) [1] |
| --- | --- | --- | --- |
| c1ccc([P+](c2ccccc2)(c2ccccc2)[Ag+]([P+](c2ccccc2)(c2ccccc2)c2ccccc2)([P+](c2ccccc2)(c2ccccc2)c2ccccc2)[P+](c2ccccc2)(c2ccccc2)c2ccccc2)cc1 [complex (9), AgNO3(PPh3)4] | 2.74 | more effective |  |
| [AgSCN{P(4-FC6H4)3}2]2 [complex (3)] |  |  | much lower degree of toxicity; also recorded: significantly lower degree of toxicity |

From patent US10583109B2, “Use of silver(I) complexes as anticancer agents” (University of Johannesburg, priority 2012, dated 2020)
